Like-named read-outs stand apart in the source and are kept apart here.
Columns and labels:
P. aeruginosa = type: cell-based
From the text: The broth microdilution technique was utilized to assess the MIC of designed peptides according to the guidelines of the Clinical and Laboratory Standards Institute (CLSI)[37].

[1] = tested on: A. baumannii ATCC BAA-1605; assay: C. elegans infection model (bacterial burden and survival); type: in vivo, Caenorhabditis elegans; conditions: 8 × MIC
Experimental: (§1) (A) Evaluation of toxicity of peptides in Caenorhabditis elegans. C. elegans strain glp-4;sek 1 was grown for four days in the presence of peptides at different concentrations. Worms were monitored daily and the live worms were counted. Results are expressed as a Kaplan-Meier survival curve. (B) Evaluation of antimicrobial activity of peptides to reduce the bacterial CFU inside infected Caenorhabditis elegans. […] After treatment, worms were lysed and bacteria were counted. […] Results are expressed as means from three biological replicates ± standard deviation. (C) Efficacy of peptides in a Caenorhabditis elegans model of bacterial infection. […] Worms were monitored daily and the live worms were counted. Results are expressed as a Kaplan-Meier survival curve. C. elegans receiving no treatment served as a negative control.
(§2) Infection and treatment of C. elegans was done, as described previously, with the following modifications, [53], [54]. […] After infection, worms were collected and washed with PBS three times. Worms (~30 per sample) were transferred either to microcentrifuge tubes (for survival assessment) or 96-well plates (for bacterial CFU determination). […] Untreated worms served as a negative control. To assess the survival of infected C. elegans, worms were assessed for viability (live worms are sinusoidal with movement, whereas dead worms are rigid rods). In order to assess the bacterial load in worms, worms were first washed three times with PBS. They were subsequently lysed by addition of 200 mg of 1.0-mm silicon carbide particles (Biospec Products, Bartlesville, OK) to each tube and vortexing for one minute. Bacteria were plated onto TSA plates containing 100 µg/ml ampicillin to permit the selective growth of P. aeruginosa and A. baumannii over Escherichia coli OP50.

[2] = tested on: colistin-resistant P. aeruginosa 1109; assay: as above; type: in vivo, Caenorhabditis elegans
Experimental: as §1, §2

P. aeruginosa PAO1 = assay: as above; type: in vivo, Caenorhabditis elegans; conditions: 8 × MIC
Experimental: as §1, §2

IL-6 = assay: Anti-inflammatory effect on LPS-stimulated macrophages, ELISA; type: cell-based, murine; conditions: J774A.1 cells, LPS 150 ng/mL, six hours
Experimental: (§3) Figure 3 Ability of peptides to neutralize LPS and reduce inflammatory cytokines expression. (A) LPS binding activity of peptides. Peptides at different concentrations were incubated with one endotoxin unit (EU) of LPS at 37 °C for 30 minutes. […] The binding of peptides with LPS is expressed as percent change relative to the untreated samples. (B) Anti-inflammatory effect of peptides on LPS-stimulated macrophages. J774A.1 cells were stimulated with LPS (150 ng/mL final concentration) in the presence of different concentrations of peptides. Cells stimulated with LPS alone and untreated cells served as controls. Cells were incubated for six hours at 37 °C before the supernatant from each treatment group was collected. Detection of tumor necrosis factor-α (TNF-α) and interleukin-6 (IL-6) in supernatants was determined using ELISA. Cytokine levels are expressed as percent change relative to the LPS-stimulated control. Statistical analysis was calculated using one-way ANOVA, with post hoc Tukey’s multiple comparisons test. P < 0.05 was considered significant. One asterisk (*) indicates significant difference with the negative control.
(§4) To assess the anti-inflammatory effect of our peptides on LPS-stimulated macrophages, J774A.1 cells were seeded and incubated as described above (for toxicity assessment). Next, the cells were stimulated with LPS (150 ng/ml final concentration) in the presence of different concentrations of peptides (RR and D-RR4). Cells stimulated with LPS alone and untreated cells served as controls. Cells were incubated for six hours at 37 °C and the supernatant from each treatment was collected and stored at −20 °C until use. Tumor necrosis factor-α (TNF-α) and interleukin-6 (IL-6) present in the supernatant was quantified using ELISA, as described previously. Cytokine levels were presented as the percent change relative to the LPS-stimulated control, using triplicate samples for each treatment condition.

TNF-α = assay: as above; type: cell-based, murine; conditions: J774A.1 cells, LPS 150 ng/mL, six hours
Experimental: as §3, §4

[3] = tested on: LPS-induced activation of the LAL enzyme (Limulus amoebocyte lysate); assay: Binding of peptides to lipopolysaccharide (LAL assay); type: biochemical; conditions: one EU of LPS, 37 °C, 30 minutes
Experimental: as §3
To determine the peptides’ ability to bind to LPS, a Limulus amoebocyte lysate (LAL) kit (Genscript, USA Inc.) was utilized, as described in previous reports. The peptides were dissolved in pyrogen-free water and serially diluted in the same solvent. The peptides were then incubated with one endotoxin unit (EU) of LPS at 37 °C for 30 minutes in order to permit the peptides to bind LPS. The reaction mixture (50 μL) was added to 50 μL of LAL reagent, and further incubated for 10 minutes. Next, 100 μL of LAL chromogenic substrate was added. The mixture was incubated at 37 °C for six minutes. The optical density (at 545 nm) was determined using a microplate reader. Colistin was used as a positive control. The binding of peptides with LPS was expressed as the percent change relative to the untreated control.

[4] = tested on: P. aeruginosa PAO1 biofilm; assay: Disruption of established biofilms, microtiter dish crystal violet assay; type: cell-based; conditions: mature (24 hour) biofilm, 24 hours at 37 °C, crystal violet OD 595 nm
Experimental: Figure 1 Efficacy of peptides on established biofilms of P. aeruginosa PAO1 and A. baumannii ATCC BAA-1605. […] After incubation, wells were washed and biofilms were stained with 0.5% (w/v) crystal violet for 30 minutes. The dye was solubilized with ethanol (95%) and the optical density (595 nm) of the biofilm mass was measured. Experiments were repeated twice independently and the average values are reported.
To examine the peptides’ ability to disrupt bacterial biofilms, the microtiter dish biofilm formation assay was employed[41]–[43].

Substance: Colistin [reference compound]
- MIC (P. aeruginosa; strain ATCC 9027): 0.25 µM
- MIC (P. aeruginosa; strain ATCC 9721): 0.5 µM
- MIC (P. aeruginosa; strain ATCC 10145): 0.5 µM
- MIC (P. aeruginosa; strain ATCC 15442): 0.25 µM
- MIC (P. aeruginosa; strain ATCC 25619): 0.25 µM
- MIC (P. aeruginosa; strain ATCC 27853): 0.25 µM
- MIC (P. aeruginosa; strain ATCC 35032): 0.5 µM
- MIC (P. aeruginosa; strain ATCC BAA-1744): 0.5 µM
- MIC (P. aeruginosa; strain PAO1): 0.5 µM
- reduction of bacterial burden (CFU) in infected worms [1]: 96%
- worms remaining alive ([1]; 36 hours): remained alive
- worms remaining alive ([1]; after 72 hours): 80–85%
- protection of infected worms (survival) ([2]; D-RR4 8 × MIC, colistin 1 × MIC, after 24 hours): failed to protect worms from death
- reduction of bacterial burden (CFU) in infected worms ([2]; in vivo): unable to significantly decrease bacterial burden
- reduction of bacterial burden (CFU) in infected worms (P. aeruginosa PAO1): 89%
- protection of infected worms (survival) (P. aeruginosa PAO1; 24 and 36 hours): nearly complete protection
- decrease of IL-6 production (IL-6; 10 µM): > 95%
- decrease of IL-6 production (IL-6; 20 µM): > 95%
- decrease of TNF-α production (TNF-α; 10 µM): > 95%
- decrease of TNF-α production (TNF-α; 20 µM): > 95%
- inhibition of LPS-induced activation of the LAL enzyme ([3]; 5 µM peptide): 51.2%
- inhibition of LPS-induced activation of the LAL enzyme ([3]; 10 µM peptide): 83.0%
- inhibition of LPS-induced activation of the LAL enzyme ([3]; 15 µM peptide): Complete inhibition
- inhibition of LPS-induced activation of the LAL enzyme ([3]; 20 µM peptide): Complete inhibition
- biofilm mass disrupted ([4]; 4 × MIC): more than 10%
- biofilm mass disrupted ([4]; 8 × MIC): > 25%
- biofilm mass disrupted ([4]; 16 × MIC): > 28%
- biofilm mass disrupted ([4]; 32 × MIC): > 75%
